# Key:
# Type in all cases: in vivo
# [1] = test system: Zea mays L. var. saccharata Sturt; assay: Cultivation of Zea mays L. var. saccharata Sturt with GSSG, sensory test (Example 4); settings: 200 mL of 0.5 mM at root twice a week for 12 weeks
# From the text: (§1) In the present example, Zea mays L. var. saccharata Sturt was cultivated under a condition different from Example 3 in how to apply GSSG. First, a Zea mays L. var. saccharata Sturt seed (TAKII & CO. Ltd., product number: Canberra 90) was sown in vermiculite (ASAHI INDUSTRIES Co., LTD.). One week after sowing, a Zea mays L. var. saccharata Sturt plant was transplanted to a hydroponic culture pot described in Example 1. To the plant, 3 g of Kumiai phosphorate ammonium nitrate potassium S-604 (Chisso Asahi Fertilizer Co., Ltd.) was applied as an additional fertilizer 4 weeks and 6 weeks after the sowing.
# During 12 weeks after germination, 200 mL of 0.5 mM GSSG was applied at a root of the plant twice a week. For comparison, a Zea mays L. var. saccharata Sturt plant was cultivated by the same method as in the present example, except that GSSG was not applied, and fruit thereof was harvested.
# (§2) Fruit was harvested 12 weeks after the sowing and subjected to a sensory test of sugar content. As a result, it was determined that fruit of the plant applied with GSSG increased in sugar content compared to that of the plant applied with no GSSG. Further, it was determined that the plant applied with GSSG increased in size and number of fruit.
# [2] = test system: Zea mays L. var. saccharata Sturt; assay: Cultivation of Zea mays L. var. saccharata Sturt with GSSG leaf spray, sensory test (Example 11)
# From the text: as §1, with “cultivated.” for “cultivated under a condition different from Example 3 in how to apply GSSG.”, “86)” for “90)”, “Two weeks” for “One week”
# In the 5th, 6th, 7th, and 8th week after the sowing, 0.5 mM GSSG (dissolved in 0.1% Tween80 serving as a spreading agent) was sprayed onto a leaf surface. For comparison, a Zea mays L. var. saccharata Sturt plant was cultivated by the same method as in the present example, except that Tween80, but not GSSG, was applied, and fruit thereof was harvested.
# Fruit was harvested 86 days after the sowing and subjected to a sensory test of sugar content. As a result, it was determined that fruit of the plant applied with GSSG increased in sugar content compared to that of the plant applied with no GSSG. Further, the fruit obtained was subjected to sugar content determination using “Pocket” Refractometer APAL-1 (ATAGO CO., LTD.). For comparison, the fruit of the plant applied with no GSSG was also subjected to the sugar content determination. […] In FIG. 8, the vertical scale indicates sugar content (Brix, unit: %).
# It was also determined that the plant applied with GSSG increased in size and number of fruit. Further, it was determined that the fruit of the plant applied with GSSG was already able to be harvested 70 days after the sowing.
# [3] = test system: Zea mays L. var. saccharata Sturt; assay: Cultivation of Zea mays L. var. saccharata Sturt with GSSG, sensory test (Example 3); settings: 50 mL of 0.2 mM, 4 times at root and 4 times sprayed to leaves
# From the text: as §1, with “cultivated.” for “cultivated under a condition different from Example 3 in how to apply GSSG.”, “Two weeks” for “One week”
# Within 2 weeks from the 5th week after the sowing, 50 mL of 0.2 mM GSSG was applied 4 times at a root of the plant. Within 2 weeks from the 7th week after the sowing, 50 mL of 0.2 mM GSSG was sprayed 4 times to leaves of the plant. For comparison, a Zea mays L. var. saccharata Sturt plant was cultivated by the same method as in the present example, except that GSSG was not applied, and fruit thereof was harvested.
# as §2, with “90 days” for “12 weeks”
# Fragaria ananassa = assay: Cultivation of Fragaria ananassa with GSSG or GSH, sensory tests of fruit (Example 10); settings: 63 days
# Protocol: In the present example, Fragaria ananassa was cultivated with use of GSSG or GSH. Details of cultivation are described below.
# First, Fragaria ananassa seedlings were transplanted to a planter. In the planter, 6 L of vermiculite (ASAHI INDUSTRIES Co., LTD.), 3 L of KUREHA horticultural soil (KUREHA CORPORATION), and 3 L of vermiculite were layered as a lower, middle, and upper layers, respectively.
# During cultivation of Fragaria ananassa plants, 50 mL of 0.2 mM or 0.5 mM GSSG or 50 mL of 0.4 mM or 0.5 mM GSH (adjusted with 0.1N NaOH to be at pH7) was applied once a week at a root per plant. The plants were grown for 63 days without being subjected to bud removal. For comparison, a Fragaria ananassa plant was grown under the same condition, except that GSSG and GSH were not applied. To the plants of any condition, 3 g of Kumiai phosphorate ammonium nitrate potassium S-604 (Chisso Asahi Fertilizer Co., Ltd.) was applied as an additional fertilizer once in 2 weeks.
# Next, the fruit harvested was subjected to sensory tests of sugar content and the like. As a result, it was determined that fruit of the plant applied with GSSG increased in sugar content and decreased in acidity compared to that of the plant not applied with GSSG or GSH. Further, it was determined that the plant applied with GSSG increased in number of fruit. It was also determined that fruit of the plant applied with GSH increased in sugar content and acidity.
# [4] = 0.5 mM in 0.1% Tween80 sprayed onto leaf surface in weeks 5-8
substance,measurement,setting,value
oxidized glutathione [GSSG],number of fruit,[1],increased
same,size of fruit,[1],increased
same,sugar content of fruit (sensory test),[1]; vs no GSSG,increased
same,number of fruit,[2]; [4],increased
same,size of fruit,[2]; [4],increased
same,time at which fruit was already able to be harvested,[2]; [4],70 days after the sowing
same,sugar content of fruit (sensory test),"[2]; 0.5 mM in 0.1% Tween80 sprayed onto leaf surface in weeks 5-8 after sowing, harvest 86 days, vs Tween80 only",increased
same,number of fruit,[3],increased
same,size of fruit,[3],increased
same,sugar content of fruit (sensory test),"[3]; harvest 90 days after sowing, vs no GSSG",increased
same,number of fruit,Fragaria ananassa; 50 mL of 0.2 or 0.5 mM GSSG once a week at root,increased
same,acidity of fruit (sensory test),"Fragaria ananassa; 50 mL of 0.2 or 0.5 mM GSSG, or 0.4 or 0.5 mM GSH, once a week at root",decreased
same,sugar content of fruit (sensory test),"Fragaria ananassa; 50 mL of 0.2 or 0.5 mM GSSG, or 0.4 or 0.5 mM GSH, once a week at root, vs plant not applied",increased

# — US8524978B2, “Composition for production of plant body having improved sugar content, and use thereof” (Japan Science and Technology Agency, priority 2007, dated 2013)
